The results in this text go back to ChEMBL document CHEMBL1139888, “Fungicidal activities of dihydroferulic acid alkyl ester analogues” (2007).

What all share (type): functional
Assay [1] has as its system Saccharomyces cerevisiae. Put plainly: Growth inhibition of wild type Saccharomyces cerevisiae BY47411 at 5 mM after 48 hrs relative to control.
Assay [2] has as its system Saccharomyces cerevisiae. The experiment in a line: Growth inhibition of wild type Saccharomyces cerevisiae BY47411 at 6.4 mM after 48 hrs relative to control.
For assay [3], the system named is Saccharomyces cerevisiae. Put plainly: Antifungal activity against wild type Saccharomyces cerevisiae BY47411 after 24 hrs.
Assay [4] relates to Aspergillus flavus. The experiment in a line: Antifungal activity against Aspergillus flavus NRRL3357.
Assay [5] relates to Aspergillus flavus. Put plainly: Growth inhibition of wild type Aspergillus flavus NRRL3357 at 0.4 mM after 4 days. As to conditions: NRRL3357, 96 h.
For assay [6], the system named is Saccharomyces cerevisiae. The experiment in a line: Antifungal activity against wild type Saccharomyces cerevisiae BY47411 assessed as cell number at 3.2 mM after 48 hrs.
Assay [7] concerns Aspergillus fumigatus. Put plainly: Fungicidal activity against wild type Aspergillus fumigatus AF293 assessed as radial growth on potato dextrose agar plate at 6.4 mM after 4 days.
Assay [8] relates to Aspergillus flavus. The experiment in a line: Growth inhibition of wild type Aspergillus flavus NRRL3357 at 6.4 mM after 4 days. As to conditions: NRRL3357, 96 h.
The test system of assay [9] is Aspergillus flavus. The experiment in a line: Growth inhibition of wild type Aspergillus flavus NRRL3357 at 3.2 mM after 4 days. As to conditions: NRRL3357, 96 h.
Assay [10] relates to Aspergillus flavus. The experiment in a line: Fungicidal activity against wild type Aspergillus flavus NRRL3357 assessed as radial growth on potato dextrose agar plate at 0.8 mM after 4 days.
For assay [11], the system named is Aspergillus flavus. Put plainly: Growth inhibition of wild type Aspergillus flavus NRRL3357 at 0.2 mM after 4 days. As to conditions: NRRL3357, 96 h.
The test system of assay [12] is Aspergillus fumigatus. Put plainly: Growth inhibition of wild type Aspergillus fumigatus AF293 at 0.2 mM after 4 days. As to conditions: AF293, 96 h.
The subject of assay [13] is Aspergillus flavus. The experiment in a line: Fungicidal activity against wild type Aspergillus flavus NRRL3357 assessed as radial growth on potato dextrose agar plate at 6.4 mM after 4 days.
Assay [14] concerns Saccharomyces cerevisiae. The experiment in a line: Antifungal activity against Saccharomyces cerevisiae bck1delta deletion mutant assessed as cell number at 3.2 mM after 48 hrs.
For assay [15], the system named is Aspergillus flavus. The experiment in a line: Fungicidal activity against wild type Aspergillus flavus NRRL3357 assessed as radial growth on potato dextrose agar plate at 0.1 mM after 4 days.
For assay [16], the system named is Aspergillus fumigatus. Put plainly: Growth inhibition of wild type Aspergillus fumigatus AF293 at 0.1 mM after 4 days. To be noted: AF293, 96 h.
Assay [17] deals with Aspergillus fumigatus. The experiment in a line: Growth inhibition of wild type Aspergillus fumigatus AF293 at 3.2 mM after 4 days. As to conditions: AF293, 96 h.
The test system of assay [18] is Aspergillus fumigatus. Put plainly: Antifungal activity against Aspergillus fumigatus AF293.
Assay [19] relates to Saccharomyces cerevisiae. The experiment in a line: Antifungal activity against wild type Saccharomyces cerevisiae BY47411 assessed as cell number at 6.4 mM after 48 hrs.
Assay [20] relates to Saccharomyces cerevisiae. The experiment in a line: Antifungal activity against wild type Saccharomyces cerevisiae BY47411 assessed as cell number at 1.6 mM after 48 hrs.
Assay [21] relates to Saccharomyces cerevisiae. Put plainly: (§1) Growth inhibition of Saccharomyces cerevisiae bck1delta deletion mutant at 3.2 mM relative to control after 48 hrs.
For assay [22], the system named is Saccharomyces cerevisiae. Put plainly: Growth inhibition of wild type Saccharomyces cerevisiae BY47411 at 0.8 mM after 48 hrs relative to control.
Assay [23] relates to Aspergillus fumigatus. Put plainly: Fungicidal activity against wild type Aspergillus fumigatus AF293 assessed as radial growth on potato dextrose agar plate at 3.2 mM after 4 days.
Assay [24] relates to Aspergillus flavus. Put plainly: Growth inhibition of wild type Aspergillus flavus NRRL3357 at 1.6 mM after 4 days. To be noted: NRRL3357, 96 h.
The test system of assay [25] is Saccharomyces cerevisiae. Put plainly: Antifungal activity against Saccharomyces cerevisiae bck1delta deletion mutant assessed as cell number at 1.6 mM after 48 hrs.
Assay [26] relates to Aspergillus fumigatus. Put plainly: Fungicidal activity against wild type Aspergillus fumigatus AF293 assessed as radial growth on potato dextrose agar plate at 0.8 mM after 4 days.
In assay [27] the test system is Aspergillus flavus. The experiment in a line: Fungicidal activity against wild type Aspergillus flavus NRRL3357 assessed as radial growth on potato dextrose agar plate at 0.4 mM after 4 days.
In assay [28] the test system is Aspergillus fumigatus. The experiment in a line: Growth inhibition of wild type Aspergillus fumigatus AF293 at 6.4 mM after 4 days. As to conditions: AF293, 96 h.
Assay [29] relates to Saccharomyces cerevisiae. Put plainly: Antifungal activity against wild type Saccharomyces cerevisiae BY47411 assessed as cell number at 0.8 mM after 48 hrs.
For assay [30], the system named is Aspergillus fumigatus. Put plainly: Fungicidal activity against wild type Aspergillus fumigatus AF293 assessed as radial growth on potato dextrose agar plate at 1.6 mM after 4 days.
The test system of assay [31] is Aspergillus fumigatus. Put plainly: Growth inhibition of wild type Aspergillus fumigatus AF293 at 0.8 mM after 4 days. To be noted: AF293, 96 h.
Assay [32] deals with Aspergillus fumigatus. The experiment in a line: Growth inhibition of wild type Aspergillus fumigatus AF293 at 0.4 mM after 4 days. To be noted: AF293, 96 h.
Assay [33] relates to Aspergillus fumigatus. The experiment in a line: Fungicidal activity against wild type Aspergillus fumigatus AF293 assessed as radial growth on potato dextrose agar plate at 0.2 mM after 4 days.
Assay [34] concerns Aspergillus flavus. The experiment in a line: Growth inhibition of wild type Aspergillus flavus NRRL3357 at 0.1 mM after 4 days. As to conditions: NRRL3357, 96 h.
Assay [35] has as its system Aspergillus fumigatus. Put plainly: Growth inhibition of wild type Aspergillus fumigatus AF293 at 1.6 mM after 4 days. To be noted: AF293, 96 h.
Assay [36] concerns Aspergillus flavus. The experiment in a line: Fungicidal activity against wild type Aspergillus flavus NRRL3357 assessed as radial growth on potato dextrose agar plate at 1.6 mM after 4 days.
In assay [37] the test system is Saccharomyces cerevisiae. The description is as §1. The source holds these as a separate data set.
In assay [38] the test system is Saccharomyces cerevisiae. The experiment in a line: Growth inhibition of wild type Saccharomyces cerevisiae BY47411 at 1.6 mM after 48 hrs relative to control.
Assay [39] concerns Aspergillus fumigatus. Put plainly: Fungicidal activity against wild type Aspergillus fumigatus AF293 assessed as radial growth on potato dextrose agar plate at 0.1 mM after 4 days.
Assay [40] has as its system Aspergillus flavus. The experiment in a line: Fungicidal activity against wild type Aspergillus flavus NRRL3357 assessed as radial growth on potato dextrose agar plate at 3.2 mM after 4 days.
Assay [41] concerns Aspergillus flavus. Put plainly: Growth inhibition of wild type Aspergillus flavus NRRL3357 at 0.8 mM after 4 days. As to conditions: NRRL3357, 96 h.
Assay [42] relates to Aspergillus flavus. Put plainly: Fungicidal activity against wild type Aspergillus flavus NRRL3357 assessed as radial growth on potato dextrose agar plate at 0.2 mM after 4 days.
Assay [43] concerns Saccharomyces cerevisiae. Put plainly: Growth inhibition of wild type Saccharomyces cerevisiae BY47411 at 3.2 mM after 48 hrs relative to control.
Assay [44] relates to Aspergillus fumigatus. Put plainly: Fungicidal activity against wild type Aspergillus fumigatus AF293 assessed as radial growth on potato dextrose agar plate at 0.4 mM after 4 days.

≈ marks a conversion by molar mass, not a printed value.

As a reminder, the inhibition is the change of the read-out against control, counted positive when it falls. The compound `CCCCCCCCCCOC(=O)CCc1ccc(O)c(OC)c1` [DIHYDROFERULIC ACID DECYL ESTER] displayed an inhibition at 5000 µM in the assay on Saccharomyces cerevisiae [1] of 2.8%.
The MIC50 is the lowest concentration that inhibits either 50% of growth or 50% of the strains tested, depending on the study. High values mean weaker potency, low ones greater potency. For orientation: MIC90 means an inhibitory concentration at the 90% level, which refers to growth in some studies and to a panel of isolates in others. As for `CCOC(=O)CCc1ccc(O)c(OC)c1` [DIHYDROFERULIC ACID ETHYL ESTER], in the assay on Saccharomyces cerevisiae [2], the inhibition at 6400 µM was found to be 87%. In addition, in the assay with Saccharomyces cerevisiae [1], the inhibition at 5000 µM came out at 98.7%. Further, in the assay on Saccharomyces cerevisiae [3], the MIC50 worked out at 4 mM (≈ 897 µg/mL) and the MIC90 was > 6.4 mM.
Compound `COC(=O)CCc1ccc(O)c(OC)c1` [DIHYDROFERULIC ACID METHYL ESTER] registered an inhibition at 5000 µM in the assay on Saccharomyces cerevisiae [1] of 100%. In addition, in the assay on Saccharomyces cerevisiae [3], the MIC50 is 2.1 mM (≈ 441 µg/mL) and the MIC90 is 5.6 mM (≈ 1180 µg/mL).
Compound `CCCCCCCCOC(=O)CCc1ccc(O)c(OC)c1` [DIHYDROFERULIC ACID OCTYL ESTER] displayed an inhibition at 5000 µM in the assay with Saccharomyces cerevisiae [1] of 6.2%.
As for `CCCOC(=O)CCc1ccc(O)c(OC)c1` [DIHYDROFERULIC ACID PROPYL ESTER], the MIC50 in the assay on Aspergillus flavus [4] was 2.9 mM (≈ 691 µg/mL); in the assay with Aspergillus fumigatus [18], 2.1 mM (≈ 500 µg/mL); against Saccharomyces cerevisiae [3], 1.5 mM (≈ 357 µg/mL). For the same compound, the inhibition at 400 µM was determined as 6.3% with Aspergillus flavus [5] and 10.7% in the assay on Aspergillus fumigatus [32]. The Activity in the assay with Saccharomyces cerevisiae [6] worked out at 0.03; in the assay on Aspergillus fumigatus [7], 0 cm; in the assay on Aspergillus flavus [10], 2.8 cm; in the assay on Aspergillus flavus [13], 0 cm; with Saccharomyces cerevisiae [14] it was 0.32; in the assay with Aspergillus flavus [15], 3.2 cm. In addition, the Activity is recorded as 0 in the assay with Saccharomyces cerevisiae [19]; 1.89 in the assay with Saccharomyces cerevisiae [20]; 1 cm with Aspergillus fumigatus [23]; 1.07 with Saccharomyces cerevisiae [25]; 3.9 cm with Aspergillus fumigatus [26]; 3 cm with Aspergillus flavus [27]. For the same compound, the Activity in the assay on Saccharomyces cerevisiae [29] is 2.99; with Aspergillus fumigatus [30], 2.7 cm; in the assay with Aspergillus fumigatus [33] it was 4.6 cm; in the assay with Aspergillus flavus [36] it was 2.3 cm; in the assay with Aspergillus fumigatus [39], 4.7 cm; in the assay with Aspergillus flavus [40], 1.5 cm. In addition, the Activity is listed as 3.1 cm in the assay with Aspergillus flavus [42] and 4.2 cm with Aspergillus fumigatus [44]. The inhibition at 6400 µM in the assay with Aspergillus flavus [8], in the assay on Saccharomyces cerevisiae [2] and in the assay on Aspergillus fumigatus [28] was 100% in each case. Further, the inhibition at 3200 µM with Aspergillus flavus [9] worked out at 53.2%; in the assay on Aspergillus fumigatus [17], 78.8%; in the assay with Saccharomyces cerevisiae [21] it was 93%; with Saccharomyces cerevisiae [37], 76.8%; with Saccharomyces cerevisiae [43] it was 99.3%. For the same compound, the inhibition at 200 µM is 3.2% in the assay with Aspergillus flavus [11] and 2.2% with Aspergillus fumigatus [12]. For the same compound, the inhibition at 100 µM in the assay with Aspergillus fumigatus [16] and in the assay on Aspergillus flavus [34] was 0% in each case. Further, the inhibition at 800 µM in the assay on Saccharomyces cerevisiae [22] was found to be 32.7%; in the assay with Aspergillus fumigatus [31] it was 17.1%; with Aspergillus flavus [41] it was 12.5%. For the same compound, the inhibition at 1600 µM in the assay with Aspergillus flavus [24] stood at 28.2%; with Aspergillus fumigatus [35], 42.6%; in the assay on Saccharomyces cerevisiae [38], 57.4%. This compound also yielded an inhibition at 5000 µM in the assay with Saccharomyces cerevisiae [1] of 99.4%. Besides, the MIC90 with Saccharomyces cerevisiae [3] amounted to 4.5 mM (≈ 1070 µg/mL).
In the assay with Saccharomyces cerevisiae [1], `COc1cc(CCC(=O)O)ccc1O` [DIHYDROFERULIC ACID] registered an inhibition at 5000 µM of 6.4%. In the assay on Saccharomyces cerevisiae [3], this compound returned an MIC50 of 6.4 mM (≈ 1260 µg/mL).
Consider `CCCCCCOC(=O)CCc1ccc(O)c(OC)c1` [HEXYLHYDROFERULATE], for which the Activity with Saccharomyces cerevisiae [6] amounted to 1; with Saccharomyces cerevisiae [19], 0.28; with Saccharomyces cerevisiae [20] it was 2.74; in the assay on Saccharomyces cerevisiae [29], 3.61. This compound also came in with an inhibition at 6400 µM in the assay with Saccharomyces cerevisiae [2] of 93.7%. For the same compound, the inhibition at 800 µM with Saccharomyces cerevisiae [22] worked out at 18.7%. For the same compound, the inhibition at 5000 µM in the assay with Saccharomyces cerevisiae [1] was determined as 18.8%. The compound also displayed an inhibition at 1600 µM in the assay on Saccharomyces cerevisiae [38] of 38.3%. Moreover, 3200 µM produced 77.5% inhibition in the assay on Saccharomyces cerevisiae [43].
